Test results published in patent publication US20080004694A1, “COMPOSITIONS AND METHODS FOR ADMINISTERING DEXAMETHASONE WHICH PROMOTE HUMAN CORONARY ARTERY ENDOTHELIAL CELL MIGRATION” (ABBOTT LABORATORIES, priority 2006, published 2008).
“Also recorded” adds a separate entry of the source.

Tests used:
[1] = system: p70S6K (T389) phosphorylation in hCaEC; experiment: Western blot of p70S6K (T389) phosphorylation in hCaEC; format: cell-based, human; settings: for effect on p70S6K T389 phosphorylation in hCaEC: 300 nM drug in growth media, 36 hours, after 24 h synchronization
Protocol: Human Coronary Endothelial Cells (hCaEC, Cambrex) were seeded on 100 mm plastic dishes (1-3×10^5 cells per dish) and incubated at 37° C. with 5% CO2 in complete growth media containing hFGF, HEGF, VEGF, R^3-IGF-1 and 5% FBS (GM). Cells were allowed to grow until dishes were 30-40% confluent. Cells were synchronized by incubation in basal media without supplements (BM) for 24 h. After synchronization the BM was replaced with GM containing test compounds, DMSO and BSA (Experimental dish: GM containing 300 nM test compounds, 0.1% BSA; Positive control: GM containing 0.1% BSA and 0.1% DMSO; Negative control: BM containing 0.1 or 0.5% FBS, 0.1% BSA and 0.1% DMSO).
Cells were incubated for 24 or 36 hours at 37° C. with 5% CO2. After which dishes were 50-70% confluent. Dishes were rinsed with warm PBS to remove excess FBS and than placed on ice. Whole cell lysates were prepared by adding 150-200 ul of RIPA lysis buffer at 4° C. (50 mM Tris HCl pH 8, 150 mM NaCl, 1% NP-40, 0.5% sodium deoxycholate, 0.1% SDS, 2 mM PMSF, 1 mM sodium orthovanadate, and protease inhibitor cocktail, Santa Cruz Biotechnology) to the culture dishes and collected by scrapping the plate surface with a cell scrapper. Lysates were transferred to 1 ml eppendorf tubes and incubated on ice with vortexing for 30 min. Samples were than centrifuged for 8 min at 10000 rpm. Supernatants were collected and transferred into new tubes and stored at −70° C.
The total protein concentration of the samples was determined by a modification of the method of Bradford (Quick Start Bradford Microplate Standard Assay, Bio-Rad) with bovine γ-globulin as a standard.
Total volume of the loaded sample was 45 ul containing 15 ul of 3× sample buffer (Laemmli Sample Buffer, Bio Rad), and sample (30 ul) containing 25 to 50 ug of protein. Samples were diluted to the same protein concentration. Samples were mixed and boiled at 98° C. for 3-4 minutes. Denaturated samples were separated in 4-15% gradient or 12% Ready Tris-HCl gels (Bio-Rad) in running buffer 25 mM Tris, pH 8.3, 192 mM glycine, 0.1% SDS at 150-180 V for 60-90 minutes and transferred to Hybond-ECL membrane (Amersham Biosciences) in 25 mM Tris, pH 8.3, 192 mM glycine, 20% methanol at 100 V for 1 hour.
Protein transfer to the membrane was verified by staining with Ponceau. Ponceau was removed by washing membranes 3 times for 5 minutes in TBS-T (10 mM Tris, pH 7.4, 150 mM NaCl, and 0.1% Tween 20). The membrane was blocked with a 3% solution of nonfat dry milk (Blotting-Grade Blocker, Bio-Rad) in TBS-T for 1 hour at room temperature. Membranes were then incubated with rabbit anti-phospho-p70S6K (T389) monoclonal antibody (Cell Signaling) 1:200 or 1:400 in 3% nonfat dry milk overnight at +4° C. and gently rocked. Goat polyclonal antibodies raised against the C-terminus of actin of human origin (Santa-Cruz Biotechnology) were used at a 1:800 dilution.
After overnight incubation with the primary antibody, membranes were washed with TBS-T 3 times for 5 minutes followed by incubation with the appropriate horseradish peroxidase linked secondary antibodies in 3% nonfat dry milk according to antibody supplier instructions. After one-hour incubation at room temperature with secondary antibodies the membrane was washed again using TBS-T, 3 times for 5 minutes and developed using ECL Plus (Amersham Biosciences). Images of the membranes were scanned and stored using a multi-channel scanning system FLA-5000 (FUJI Film). […]

[2] = system: human coronary artery endothelial cells (hCaEC); experiment: hCaEC migration induced by full growth media after 24 h drug pretreatment; format: cell-based; settings: for effect on full growth media induced hCaEC migration after drug pretreatment: 24 h pretreatment in full growth media, drug present during migration
Protocol: (§1) In acute studies, cells were collected, counted, and 200,000 hCaEC or 160,000 hCaSMC placed in the upper chambers of modified boyden chambers in 24 well plates (BD Biosciences). Plates contained microporous membranes of 3.0 and 8.0 um for hCaEC and hCaSMC, respectively. […] After migration, cells were stained with calcein-AM for 90 minutes and fluorescence determined using a plate reader capable of measuring fluorescence emitted by the bottom of the microporous filter.
Migration of hCaEC was induced by full growth media and the effects of the drugs sirolimus, dexamethasone, zotarolimus, everolimus, and paclitaxel on hCaEC migration determined. Following pretreatment cells were counted and re-suspended in basal media containing drugs and migration initiated.

[3] = system: human coronary artery smooth muscle cells (hCaSMC); experiment: hCaSMC migration in response to FBS alone after 24 h drug pretreatment; format: cell-based; settings: 24 h pretreatment in growth media, drug present
Protocol: as §1
Another experiment was conducted to determine if growth factors contained in full growth media played a role in the inability of the mTOR antagonist zotarolimus or dexamethasone to inhibit human coronary artery smooth muscle cell (hCaSMC) migration. Migration in response to FBS following pretreatment of hCaSMC with different concentrations of drugs was determined for the drugs dexamethasone, zotarolimus, rapamycin, and paclitaxel. To explore this effect, hCaSMC were synchronized, pretreated with drug in growth media for 24 hours, resuspended in basal media containing drug and migration in response to FBS alone determined.

[4] = system: human coronary artery smooth muscle cells (hCaSMC); experiment: PDGF-BB induced hCaSMC migration after 24 h drug pretreatment; format: cell-based; settings: 24 h pretreatment; PDGF-BB 25 ng/ml
Protocol: as §1
Pre-exposure with the mTOR agent sirolimus has been reported to block rat aortic smooth muscle cell migration in response to S1P-1 and porcine aortic smooth muscle in response to PDGF-BB. […] In contrast to their inability to block serum-induced migration, zotarolimus, dexamethasone, and paclitaxel all inhibited migration in response to the single chemotactic agent PDGF-BB (25 ng/ml).

[5] = system: human coronary artery endothelial cells (hCaEC); experiment: hCaEC migration in response to FBS after 24 h drug pretreatment; format: cell-based; settings: 24 h pretreatment in growth media; migration to 5% FBS without growth factors; drug present
Protocol: as §1
To determine if growth factors contained in full growth media played a role in the inability of the mTOR antagonists (sirolimus or zotarolimus) or dexamethasone to inhibit migration, additional experiments were conducted to determine if drug pretreatment would affect migration induced by 5% FBS in the absence of growth factors. Migration in response to FBS following pretreatment of hCaEC with different concentrations of drugs was determined for the drugs sirolimus, dexamethasone, zotarolimus, and paclitaxel. To explore this effect in hCaEC, cells were synchronized, pretreated with drug in growth media for 24 hours, resuspended in basal media containing drug and migration in response to FBS determined. […] Dexamethasone promoted hCaEC migration.

[6] = system: human coronary artery endothelial cells (hCaEC); experiment: hCaEC migration, modified Boyden chamber, acute drug exposure, induced by 5% FBS; format: cell-based; settings: for effect on hCaEC migration: no pretreatment, 22 hour migration
Protocol: As such, EC and SMC migration in response to hFGF, HEGF, VEGF, R^3-IGF-1 and FBS or FBS alone was determined using a modified Boyden chamber.
When necessary, each cell type was passed at ˜75% confluence.
as §1

[7] = system: p70S6K (T389) phosphorylation in hCaSMC; experiment: Western blot of p70S6K (T389) phosphorylation in hCaSMC; format: cell-based, human; settings: 300 nM drug, 36 hours, after 24 h synchronization
Protocol: To determine if inhibition of p70S6K was involved in serum-induced migration Western blot experiments were performed on hCaEC and hCaSMC treated using an experimental paradigm similar to those of the migration experiments. […] The effects of drug treatment on p70S6K T389 phosphorylation in hCaEC are illustrated in FIG. 6A-6B. […] Paclitaxel also reduces T389 phosphorylation though this effect is less than that of the mTOR antagonists.
Membranes were probed with a rabbit anti-phospho-p70S6K (T389) monoclonal antibody (Cell Signaling). […] Furthermore, the anti-migratory activity of the mTOR antagonists is not likely to contribute to their anti-restenotic activity. Conversely, paclitaxel is a potent anti-migratory agent and this effect is likely to contribute to the anti-restenotic activity.

pRb phosphorylation = experiment: pRb phosphorylation; format: cell-based

With C[C@@H]1C[C@H]2[C@@H]3CCC4=CC(=O)C=C[C@]4(C)[C@@]3(F)[C@@H](O)C[C@]2(C)[C@@]1(O)C(=O)CO [dexamethasone] the “effect on p70S6K T389 phosphorylation in hCaEC” value (from here on “effect … in hCaEC”) [1] was “does not inhibit”.
CO[C@H]1C[C@@H]2CC[C@@H](C)[C@@](O)(O2)C(=O)C(=O)N2CCCC[C@H]2C(=O)O[C@H]([C@H](C)C[C@@H]2CC[C@@H](OCCO)[C@H](OC)C2)CC(=O)[C@H](C)/C=C(\C)[C@@H](O)[C@@H](OC)C(=O)[C@H](C)C[C@H](C)/C=C/C=C/C=C/1C [everolimus] was tested, and the “effect on full growth media induced hCaEC migration after drug pretreatment” value [2] was “only paclitaxel inhibits”.
In the case of CC(=O)O[C@H]1C(=O)[C@@]2(C)[C@H]([C@H](OC(=O)c3ccccc3)[C@]3(O)C[C@H](OC(=O)[C@H](O)[C@@H](NC(=O)c4ccccc4)c4ccccc4)C(C)=C1C3(C)C)[C@]1(OC(C)=O)CO[C@@H]1C[C@@H]2O [paclitaxel], the “effect on FBS-induced hCaSMC migration after drug pretreatment” value [3] was “significantly blocks”, the “effect on full growth media induced hCaEC migration after drug pretreatment” value [2] was “inhibits” and the “effect on migration of human coronary artery endothelial cells in vitro (summary statement)” value ([2]; in the presence of multiple growth factors and FBS) was “inhibits”. The “effect on hCaSMC migration in response to PDGF-BB” value [4] was “inhibited”, the “effect on FBS-induced hCaEC migration after drug pretreatment” value [5] was “significantly blocks” and the “anti-migratory potency in hCaEC compared to hCaSMC” value [6] was “significantly greater”. For the same compound, the “effect on p70S6K T389 phosphorylation in hCaSMC” value [7] was “reduces”, the “effect … in hCaEC” value [1] was “inhibit” and the “effect … in hCaEC” value ([1]; listed as Paclitaxel) was “reduces”.
For CO[C@H]1C[C@@H]2CC[C@@H](C)[C@@](O)(O2)C(=O)C(=O)N2CCCC[C@H]2C(=O)O[C@H]([C@H](C)C[C@@H]2CC[C@@H](O)[C@H](OC)C2)CC(=O)[C@H](C)/C=C(\C)[C@@H](O)[C@@H](OC)C(=O)[C@H](C)C[C@H](C)/C=C/C=C/C=C/1C [sirolimus], the “effect on hCaEC migration” value [6] was “no effect”.
For CO[C@H]1C[C@@H]2CC[C@@H](C)[C@@](O)(O2)C(=O)C(=O)N2CCCC[C@H]2C(=O)O[C@H]([C@H](C)C[C@@H]2CC[C@H](n3cnnn3)[C@H](OC)C2)CC(=O)[C@H](C)/C=C(\C)[C@@H](O)[C@@H](OC)C(=O)[C@H](C)C[C@H](C)/C=C/C=C/C=C/1C [zotarolimus], the “effect on FBS-induced hCaSMC migration after drug pretreatment” value [3] was “did not significantly block”, the “effect on pRb phosphorylation” value (pRb phosphorylation) was “reduces” and the “effect on full growth media induced hCaEC migration after drug pretreatment” value [2] was “only paclitaxel inhibits”. The “effect on hCaSMC migration in response to PDGF-BB” value [4] was “inhibited”, the “effect on FBS-induced hCaEC migration after drug pretreatment” value [5] was “did not significantly block” and the “effect on hCaEC migration” value [6] was “no effect”. For the same compound, the “effect on p70S6K T389 phosphorylation in hCaSMC” value [7] was “completely inhibit”, the “effect … in hCaEC” value [1] was “completely block; also recorded: inhibit” and the “p70S6K T389 to actin ratio compared to growth controls (densitometry)” value ([1]; hCaEC, 300 nM drug) was “significant inhibition”.
